Assays:
[1] = Study of stability in plasma (disappearance of the conjugate by HPLC); details: 37° C.
Description: The mixture was quenched with a CH3CN/MeOH mixture (800 μL) in a ratio of 1:1, swirled for 1 minute, and then filtered through a 0.2 μm filter membrane. 30 μl of the resulting filtrate was analyzed by HPLC, to measure the disappearance of the conjugate.

[2] = cited from earlier work
[3] = tested on: COLO 205; experiment: cells; details: Homo sapiens, COLO 205, read-out: IC50 COLO205
Description: (§1) All cell lines were obtained from the American Type Culture Collection, and grown in the following media: COLO 205 and OVCAR-3 (RPMI 1640, containing 4.5 g/L glucose, 10 mM HEPES, 1 mM sodium pyruvate, 10% FBS); HT-29 (McCoy's 5a, containing 1.5 mM L-glutamine, 10% FBS); A549 (Ham's F12K, containing 10% FBS). All cell lines were maintained in an incubator at 37° C. containing 5% CO2. […] Briefly, the day before the start of the experiment the cells were incubated in a 96-well plate in a quantity of 10,000-20,000/well. […] At the end of the incubation period, an MTS dye was added, and then the colored product formazane as formed was measured by a Spectramax 340PC reader (Molecular Devices, CA) at 490 nm.
(§2) A interval was less than 0.100 μM; B interval was greater than 0.100 μM but less than 0.500 μM; C interval was greater than 0.500 μM but less than 2.000 μM; D interval was greater than 2.000 μM.

[4] = tested on: A549; experiment: cells; details: Homo sapiens, A549, read-out: IC50 A549
Description: as §1, §2

[5] = tested on: OVCAR-3; experiment: cells; details: Homo sapiens, OVCAR-3, read-out: IC50 OVCAR3
Description: as §1, §2

[6] = tested on: HT-29; experiment: cells; details: Homo sapiens, HT-29, read-out: IC50 HT 29
Description: as §1, §2

[7] = loss of midline facial features, uniocular, lack of anatomical features from forebrain; cited from earlier work

## CC1=C2C[C@H]3[C@@H](CC=C4C[C@@H](O)CC[C@@]43C)[C@@H]2CC[C@]12O[C@@H]1C[C@H](C)CN[C@H]1[C@H]2C [cyclopamine]
[1]; 2 h
  disappearance % 2 h: 32%
[1]; 4 h
  disappearance % 4 h: 68%
[1]; 24 h
  disappearance % 24 h: 83%
[2]
  chemical stability at low pH: chemically instable
[3]
  IC50: 100 to 500 nM
[4]
  IC50: > 2000 nM
[5]
  IC50: 100 to 500 nM
[6]
  IC50: 100 to 500 nM
[7]
  teratogenicity: teratogenic
